Data on three molecules can be found in patent US12698264B2, “Synthesis of tigilanol tiglate and analogs thereof” (THE BOARD OF TRUSTEES OF THE LELAND STANFORD JUNIOR …, priority 2021, dated 2026).

One data set addresses PKC β (Homo sapiens, UniProt P05771). Nature of the data set: PKC binding of trigowiin A. Conditions: type of constant not given; read-out: binds with PKC β.
In another data set the target is PKC δ (Homo sapiens, UniProt Q05655). Nature of the data set: PKC binding of trigowiin A. Conditions: type of constant not given; read-out: binds with PKC δ.
Sequence of PKC δ (Q05655 whole entry): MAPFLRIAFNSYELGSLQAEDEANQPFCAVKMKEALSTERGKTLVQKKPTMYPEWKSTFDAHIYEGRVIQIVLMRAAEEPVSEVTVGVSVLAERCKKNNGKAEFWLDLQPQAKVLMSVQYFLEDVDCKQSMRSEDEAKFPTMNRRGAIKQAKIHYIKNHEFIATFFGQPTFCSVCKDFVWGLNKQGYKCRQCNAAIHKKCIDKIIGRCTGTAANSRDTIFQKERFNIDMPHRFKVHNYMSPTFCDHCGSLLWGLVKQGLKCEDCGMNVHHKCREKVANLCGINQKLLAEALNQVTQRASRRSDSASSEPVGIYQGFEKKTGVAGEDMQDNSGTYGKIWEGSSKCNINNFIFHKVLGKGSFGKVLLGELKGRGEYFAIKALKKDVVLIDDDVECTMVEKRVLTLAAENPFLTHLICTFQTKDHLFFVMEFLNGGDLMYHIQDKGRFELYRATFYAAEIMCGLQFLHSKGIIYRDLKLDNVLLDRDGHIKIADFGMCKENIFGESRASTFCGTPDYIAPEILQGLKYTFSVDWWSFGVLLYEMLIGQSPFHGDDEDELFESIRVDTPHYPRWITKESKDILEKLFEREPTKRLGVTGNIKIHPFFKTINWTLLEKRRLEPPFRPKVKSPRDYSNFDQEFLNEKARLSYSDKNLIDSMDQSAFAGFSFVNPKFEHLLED
In a further data set the test system is chikungunya virus (CHKV). Particulars: cited from earlier work.
For the next data set, the system named is protein kinase C (PKC). It is filed as binding, human. As for the experimental part:
(§1) The protein kinase C (PKC) affinity of EBC-46 and EBC-46 analogs was performed via competition with ^3H-phorbol-12,13-dibutyrate (^3H-PDBu). This procedure entailed a glass-fiber filtration method to determine bound radioligand.
(§2) Preparation of PKC binding assay buffer: To a 50 mL polypropylene tube was added Tris-HCl (pH 7.4, 1 M, 1 mL), KCl (1 M, 2 mL), CaCl2 (0.1 M, 30 μL), and bovine serum albumin (BSA, 40 mg, Sigma-Aldrich). This mixture was diluted to 20 mL with deionized H2O and mixed gently. The buffer was stored on ice until use.
(§3) Preparation of phosphatidylserine (PS) vesicles: For every two assays, 3.5 mg phosphatidylserine (Avanti Polar Lipids, porcine, 25 mg/mL CHCl3 solution) was concentrated by removing chloroform under a stream of nitrogen followed by reduced pressure. […]
(§4) For each data point, 280 μL of “Master Mix” Solution and 20 μL of analog compound at a specified concentration were added to a polypropylene tube. […] Maximal ^3H-PDBu binding was assessed in triplicate by substitution of the analog compound with 20 μL DMSO. […] Scintillation vials were filled with Bio-Safe II scintillation fluid (5 mL) and measured for radioactivity using a Beckman LS 6000SC scintillation counter. […] The Kd of ^3H-PDBu for PKC isoforms was measured separately via saturation binding experiments under identical conditions.

The nature of data set [1]: Incubation in neutral aqueous media. It is filed as physicochemical. Particulars: upon incubation in neutral aqueous media.
A further data set deals with T1, PKC-βI (Homo sapiens, UniProt P05771).
T1 construct: purchased Invitrogen
T1 sequence (P05771 whole entry): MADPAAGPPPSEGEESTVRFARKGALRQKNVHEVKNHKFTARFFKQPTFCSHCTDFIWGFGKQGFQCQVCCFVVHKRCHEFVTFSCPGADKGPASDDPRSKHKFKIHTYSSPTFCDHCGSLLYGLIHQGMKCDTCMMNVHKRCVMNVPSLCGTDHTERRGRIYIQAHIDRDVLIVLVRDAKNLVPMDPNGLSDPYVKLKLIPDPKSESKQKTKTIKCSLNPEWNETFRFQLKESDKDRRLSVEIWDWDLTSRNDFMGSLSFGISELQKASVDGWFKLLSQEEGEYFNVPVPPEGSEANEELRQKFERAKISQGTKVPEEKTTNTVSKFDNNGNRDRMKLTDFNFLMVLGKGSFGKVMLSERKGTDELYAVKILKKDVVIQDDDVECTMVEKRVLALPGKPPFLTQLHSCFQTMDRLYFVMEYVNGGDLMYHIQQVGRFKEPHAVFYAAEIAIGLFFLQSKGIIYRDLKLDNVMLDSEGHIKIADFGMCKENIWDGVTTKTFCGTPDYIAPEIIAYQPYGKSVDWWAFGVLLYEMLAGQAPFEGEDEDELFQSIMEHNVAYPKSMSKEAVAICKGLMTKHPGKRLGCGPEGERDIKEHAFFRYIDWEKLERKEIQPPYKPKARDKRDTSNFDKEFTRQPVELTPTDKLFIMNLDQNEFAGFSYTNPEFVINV
It is filed as binding. As for the experimental part:
as §1, §2, §3, §4

The next data set relates to mast cell tumors. Particulars: canines, cited from earlier work.
Another data set concerns PKC-βI-GFP. It is filed as cell-based, Chinese hamster. As for the experimental part: 2 mL of fresh F-12−/− was then added to each well, taking care not to disturb adherent cells. […] 250 μL of the Lipofectamine 2000 suspension was added to the DNA suspension and the solution incubated for 30 minutes at RT. 500 μL of the Lipofectamine/DNA suspension was added to the respective wells of the 6-well plate. The cells were then incubated at 37° C.

“Also recorded” adds a separate entry of the source.

Sequence of PKC β (P05771 whole entry, species assumed): as the sequence (P05771 whole entry) above

Regarding trigowiin A, the PKC β binding affinity at PKC β stood at 19.3 nM. Further, the PKC δ binding value (constant type not stated) at PKC δ was found to be 20.3 nM. In the data set with chikungunya virus (CHKV), the “antiviral activity against chikungunya virus” value is “moderate antiviral activity”.
With `CC(=O)O[C@@H]1[C@@H](C)[C@@]2(O)C([C@@H]3C(C)(C)[C@]13OC(C)=O)[C@@H]1O[C@]1(CO)[C@@H](O)[C@]1(O)C(=O)C(C)=C[C@H]12` (stereo partly shown) [SUW401], in the data set on protein kinase C (PKC), the PKC binding affinity entry was “very low PKC binding affinity”.
`C/C=C(\C)C(=O)O[C@@H]1[C@@H](C)[C@@]2(O)C([C@@H]3C(C)(C)[C@]13OC(=O)[C@@H](C)CC)[C@@H]1O[C@]1(CO)[C@@H](O)[C@]1(O)C(=O)C(C)=C[C@H]12` (stereo partly shown) [EBC-46, tigilanol tiglate]: the PKC binding affinity entry in the data set with protein kinase C (PKC) is “potent PKC affinity”. Moreover, the “stability in neutral aqueous media” value in data set [1] was “spontaneously undergo Payne rearrangement to EBC-211”. For the same molecule, at PKC-βI, the “PKC isoform binding selectivity” value is “isoform-selective binding”. Besides, in the data set on mast cell tumors (after a second dose), the remission is 88%. In the data set with mast cell tumors (after a single intratumoral injection), the complete response is given as 75%. Further, in the data set with PKC-βI-GFP, the “translocation of PKC-βI-GFP” value is “modest translocation; also recorded: robust translocation”.
